# According to ChEMBL document CHEMBL1201862, “PubChem BioAssay data set” (2004):
#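 Exposure lasted 48 hours, with cells grown in 96-well plates and compounds tested at five concentrations. GI50 marks 50% less growth.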 Active and inactive are the calls of the source. Rule as the data show it: active = GI50 up to about 1.1 µM and inactive = higher.
# Key:
# Experiment in all cases: inhibition of tumour cell growth, NCI panel, 48 h
# [1] = tested on: 786-0
# [2] = tested on: A498
# [3] = tested on: A549
# [4] = tested on: ACHN
# [5] = tested on: BT-549
# [6] = tested on: CAKI-1
# [7] = tested on: CCRF-CEM
# [8] = tested on: COLO 205
# [9] = tested on: DU-145
# [10] = tested on: EKVX
# [11] = tested on: HCC 2998
# [12] = tested on: HCT-116
# [13] = tested on: HCT-15
# [14] = tested on: HL-60
# [15] = tested on: HOP-62
# [16] = tested on: HOP-92
# [17] = tested on: HT-29
# [18] = tested on: Hs-578T
# [19] = tested on: IGROV-1
# [20] = tested on: K562
# [21] = tested on: KM12
# [22] = tested on: LOX IMVI
# [23] = tested on: M14
# [24] = tested on: MCF7
# [25] = tested on: MDA-MB-231
# [26] = tested on: MDA-MB-435
# [27] = tested on: MOLT-4
# [28] = tested on: Malme-3M
# [29] = tested on: NCI-H226
# [30] = tested on: NCI-H23
# [31] = tested on: NCI-H460
# [32] = tested on: NCI-H522
# [33] = tested on: NCI/ADR-RES
# [34] = tested on: OVCAR-3
# [35] = tested on: OVCAR-4
# [36] = tested on: OVCAR-5
# [37] = tested on: OVCAR-8
# [38] = tested on: PC-3
# [39] = tested on: RPMI-8226
# [40] = tested on: RXF 393
# [41] = tested on: SF-268
# [42] = tested on: SF-295
# [43] = tested on: SF-539
# [44] = tested on: SK-MEL-28
# [45] = tested on: SK-MEL-2
# [46] = tested on: SK-MEL-5
# [47] = tested on: SK-OV-3
# [48] = tested on: SN12C
# [49] = tested on: SNB-19
# [50] = tested on: SNB-75
# [51] = tested on: SR
# [52] = tested on: SW-620
# [53] = tested on: T47D
# [54] = tested on: TK-10
# [55] = tested on: U-251
# [56] = tested on: UACC-257
# [57] = tested on: UACC-62
# [58] = tested on: UO-31
compound,measurement,setting,value
O=C(ON=c1c2ccccc2ccc2ccccc12)c1ccccc1,GI50,[1],23.6 µM (inactive)
same,GI50,[2],22.1 µM (inactive)
same,GI50,[3],29.7 µM (inactive)
same,GI50,[4],34.9 µM (inactive)
same,GI50,[5],31.6 µM (inactive)
same,GI50,[6],24.4 µM (inactive)
same,GI50,[7],18.8 µM (inactive)
same,GI50,[8],18.1 µM (inactive)
same,GI50,[9],42.2 µM (inactive)
same,GI50,[10],35.7 µM (inactive)
same,GI50,[11],34 µM (inactive)
same,GI50,[12],13.9 µM (inactive)
same,GI50,[13],29.7 µM
same,GI50,[14],6.28 µM (inactive)
same,GI50,[15],22 µM (inactive)
same,GI50,[16],26.2 µM (inactive)
same,GI50,[17],28.2 µM (inactive)
same,GI50,[18],22.2 µM (inactive)
same,GI50,[19],24 µM (inactive)
same,GI50,[20],8.81 µM (inactive)
same,GI50,[21],11.8 µM (inactive)
same,GI50,[22],18.4 µM (inactive)
same,GI50,[23],18.1 µM (inactive)
same,GI50,[24],24 µM (inactive)
same,GI50,[25],22.9 µM (inactive)
same,GI50,[26],20.7 µM (inactive)
same,GI50,[27],7.96 µM (inactive)
same,GI50,[28],22.9 µM (inactive)
same,GI50,[29],22.3 µM (inactive)
same,GI50,[30],37.5 µM (inactive)
same,GI50,[31],43.2 µM (inactive)
same,GI50,[32],20.7 µM (inactive)
same,GI50,[33],21.2 µM (inactive)
same,GI50,[34],23.5 µM (inactive)
same,GI50,[35],28 µM (inactive)
same,GI50,[36],60.8 µM (inactive)
same,GI50,[37],27.4 µM (inactive)
same,GI50,[38],40.1 µM (inactive)
same,GI50,[39],24.4 µM (inactive)
same,GI50,[40],17.9 µM (inactive)
same,GI50,[41],35.6 µM (inactive)
same,GI50,[42],35.7 µM (inactive)
same,GI50,[43],15.5 µM (inactive)
same,GI50,[44],29.8 µM (inactive)
same,GI50,[45],30.1 µM (inactive)
same,GI50,[46],16.2 µM (inactive)
same,GI50,[47],56 µM (inactive)
same,GI50,[48],27.2 µM (inactive)
same,GI50,[49],26.1 µM (inactive)
same,GI50,[50],26.5 µM (inactive)
same,GI50,[51],8.39 µM (inactive)
same,GI50,[52],18.1 µM (inactive)
same,GI50,[53],30.3 µM (inactive)
same,GI50,[54],> 75.9 µM (inactive)
same,GI50,[55],19.5 µM (inactive)
same,GI50,[56],27.6 µM (inactive)
same,GI50,[57],16.2 µM (inactive)
same,GI50,[58],25.5 µM (inactive)
